Patent US20050085454A1, “Phenolic antioxidant-chromium complexes for treatment or prevention of type 2 diabetes or glucose intolerance” (NATREON INC., priority 2003, published 2005)

Experiments:
patients with NIDDM = details: oral administration; cited from earlier work
[1] = tested on: patients with coronary heart disease; details: 60 mg twice daily oral, after 8 weeks; cited from earlier work
[2] = tested on: rats with diabetes induced by chemical destruction of β-cells; details: 1% taurine in the drinking water; cited from earlier work
[3] = tested on: Steptozocine(STZ)-induced male Wistar rats; assay: Effect of high doses of the inventive complex, blood sugar over 21 days; assay type: in vivo; details: 100 mg/Kg oral (S-2: Cr3+ 1,000 μg/Kg; chromium picolinate: Cr3+ 700 μg/Kg), concurrently with STZ 40 mg/Kg s.c.
[4] = Effects on animal body weight in STZ-induced hyperglycemia; assay type: in vivo; details: STZ-treated rats, 100 mg/Kg oral
[5] = tested on: STZ-induced diabetic rats; assay: Repairing damaged β-cells: treatment of STZ-induced diabetic rats for further 21 days; assay type: in vivo
Procedure: In another set of experiments, STZ-induced diabetic rats, after 21 days, were administered the invention test complex compounds: S-1 (50 mg/Kg, p.o.), S-2 (100 mg/Kg, p.o.), Chromium picolinate (100 mg/Kg, p.o.), Example-1A (100 mg/Kg., p.o.), per day for further 21 days. This experiment was conducted with a view to assessing the repair aspect of the damaged β-cells by the test compounds.

[6] = tested on: Steptozocine(STZ)-induced male albino rats; assay: Screening of antidiabetic activity, blood sugar lowering action; assay type: in vivo; details: 300 μg/Kg oral, 48 hr after STZ
GK rat = details: Vitamin E supplementation; cited from earlier work
obese Zucker rat = details: dietary Vitamin E; cited from earlier work

For O=C(O)CCCC[C@@H]1CCSS1 (racemic) [lipoic acid], the insulin-mediated glucose uptake (patients with NIDDM) is listed as “significantly increased”.

In the case of COC1=C(OC)C(=O)C(C/C=C(\C)CC/C=C(\C)CC/C=C(\C)CC/C=C(\C)CC/C=C(\C)CC/C=C(\C)CC/C=C(\C)CC/C=C(\C)CC/C=C(\C)CCC=C(C)C)=C(C)C1=O [coenzyme Q10], the “plasma levels of insulin (fasting and 2-hr), glucose, and lipid peroxides, as compared to the control group” value [1] is given as “reduced”.

For NCCS(=O)(=O)O [taurine], the renal oxidant injury [2] is listed as “reduced”.

With Chromium picolinate the “Blood Sugar Values (Arterial Blood), day 7” value ([3]; day 7) was 88.7 ± 4.4, the “Blood Sugar Values (Arterial Blood), day 14” value ([3]; day 14) was 94.3 ± 7.2 and the “Blood Sugar Values (Arterial Blood), day 21” value ([3]; day 21) was 92.5 ± 3.5. The “Body Weight in gm, day 1” value ([4]; day 1) was 166 ± 8 gm, the “Body Weight in gm, day 7” value ([4]; day 7) was 180 ± 7 gm and the “Body Weight in gm, day 14” value ([4]; day 14) was 168 ± 9 gm. For the same molecule, the “Body Weight in gm, day 21” value ([4]; day 21) was 172 ± 9 gm, the “% Change from day 1 (glucose)” value ([5]; 100 mg/Kg p.o. per day for 21 days, started 21 days after STZ, day 21 vs day 1) was “+14 ↑ %” and the “Glucose (mg/dl) values; mean ± SE, day 1” value ([5]; 100 mg/Kg p.o. per day, started 21 days after STZ, day 1) was 253.2 ± 7.7 mg/dL. For the same molecule, the “Glucose (mg/dl) values; mean ± SE, day 7” value ([5]; 100 mg/Kg p.o. per day, started 21 days after STZ, day 7) was 302.8 ± 18.0 mg/dL, the “Glucose (mg/dl) values; mean ± SE, day 14” value ([5]; 100 mg/Kg p.o. per day, started 21 days after STZ, day 14) was 294.3 ± 20.4 mg/dL and the “Glucose (mg/dl) values; mean ± SE, day 21” value ([5]; 100 mg/Kg p.o. per day, started 21 days after STZ, day 21) was 289.6 ± 9.0 mg/dL. The “effect on progressive increase in hyperglycemia (post STZ-treatment)” value ([5]; diabetic rats treated p.o. for 21 days) was “no beneficial effect”.

With Chromium polynicotinate [Example N-7] the “Fasting Serum Glucose (mg/dl) (mean ± SEM)” value ([6]; 3 days before and 2 days after STZ 50 mg/Kg i.v., 18 hr fasting) was 141.30 ± 9.54 mg/dL and the “% Inhibition (of fasting serum glucose vs STZ)” value ([6]; 3 days before and 2 days after STZ) was 58.25%.

In the case of Vitamin E, the glycemic control (GK rat) is listed as “significantly improved” and the “glucose-stimulated hyper-insulinemia and lipid peroxidation” value (obese Zucker rat) is listed as “significantly reduced”.
